From US20240423941A1, “MEDIUM CHAIN DICARBOXYLIC ACIDS FOR THE TREATMENT AND PREVENTION OF DISEASES AND CONDITIONS” (University of Pittsburgh - Of the Commonwealth System of …, priority 2021, published 2024)
Entries after “also recorded” stand apart in the source; their conditions may differ.

Tests used:
[1] = test system: unilateral ureteral obstruction (UUO); test: Unilateral ureteral obstruction (UUO) model of interstitial fibrosis; assay type: in vivo; conditions: DC8 fed versus control fed diet
Text: FIG. 14. DC8 treatment was also protective against a chronic kidney disease model of interstitial fibrosis. As was evidenced in the control fed diet 14A and A′ when the kidney was subjected to unilateral ureteral obstruction (UUO) that there was a significant amount of trichrome positive fibrosis in the interstitium (blue).

[2] = test system: lysine succinylation (Suc-Lys) PTMs; test: Western blotting of lysine succinylation in tissues of mice fed dicarboxylic acids; assay type: in vivo, wildtype C57Bl/6 mice; conditions: for lysine succinylation (Suc-Lys) PTMs in kidney / lysine succinylation (Suc-Lys) PTMs in liver: fed 10% w/w for 7 days
Text: FIGS. 1A-1C. Feeding mice DCAs causes a dramatic shift in the post-translational modification (PTM) landscape. […] ND=normal diet. FIG. 1B) Mice were fed 10% DC12 for 0 to 7 days; some mice underwent a 7-day “washout” after 7 days on DC12.
FIG. 6. DC8 causes robust kidney specific succinylation. DC8, DC10 and DC12 were fed to wild-type mice at 10% w/w for 7 days.
(§1) We hypothesized that peroxisomes can chain-shorten DC12 as far as DC4-CoA, also known as succinyl-CoA. Such a mechanism would be predicted to 1) result in protein succinylation in the peroxisome, due to the known high chemical reactivity between lysine residues and succinyl-CoA; and 2) “feed” the mitochondrial TCA cycle with the products of DC12 chain-shortening, namely 2-carbon units (acetate) and succinate. We fed wildtype C57Bl/6 mice DC12 mixed into the diet and measured protein succinylation as a proxy for succinyl-CoA formation. […] The succinylation is seen to arise within 1 day and becomes maximal at 7 days (FIG. 1B). The effect is reversible when the diet is removed. DC12 degradation also produces acetyl-CoA. […] Like succinyl-CoA, glutaryl-CoA (DC5-CoA) is also highly reactive.
DC8 induces high-level, kidney-specific protein succinylation. […] Potential side effects caused by liver metabolization can be avoided, and the liver is not reducing the available agent.

ischemic AKI = test: Unilateral ischemic kidney injury (ischemic AKI); assay type: in vivo, male mice; conditions: for BUN / kidney damage by H & E staining (dilated tubules, proteinaceous casts) / serum creatinine: diet-fed versus normal diet; for expression of the injury marker NGAL in proximal tubules: immunostaining
Text: FIG. 3. DC12 treatment mitigates ischemic kidney injury. Normal diet or DC12-fed male mice were subjected to ischemic AKI. […] Tubular dilation (arrows), debris, or proteinaceous casts are indicated (*). […] E,F) DC12-fed mice had lower serum creatinine and BUN, which are markers of kidney dysfunction. *p<0.05.
FIGS. 7A-7F. […] Normal diet or DC8-fed male mice were subjected to ischemic AKI. […] Tubular dilation (arrows), debris, or proteinaceous casts are indicated (*). […] FIGS. 7E,7F) DC8-fed mice had lower serum creatinine and BUN, which are markers of kidney dysfunction. ****p<0.0001.
DC12 is renoprotective. […] To test this, mice that had been fed ±10% DC12 for 7 days were subjected to unilateral ischemic kidney injury. In this model, the uninjured contralateral kidney is removed on Day 6 post-injury and used as control tissue, and the injured kidneys are collected one day later for analysis. The diet was continued during the 6-day recovery period post-injury, as well as after removing the contralateral kidney.
(§2) The effect of DC8 in ischemic AKI was also tested.

[3] = test system: long-chain acyl-CoA dehydrogenase (LCAD) knockout mice; test: LCAD knockout mice, model of mitochondrial long-chain fatty acid oxidation disorders; assay type: in vivo
Text: FIG. 11A-11E. DC12 and DC10 improve functioning in long-chain acyl-CoA dehydrogenase (LCAD) knockout mice, a mouse model of mitochondrial long-chain fatty acid oxidation disorders.

[4] = test system: lysine glutarylation (Glu-Lys); test: Western blotting of lysine glutarylation in mice fed DC11; assay type: in vivo; conditions: 10% w/w for 7 days
protein acetylation = test: Protein acetylation with pan anti-acetyllysine antibody in DC12-fed mice; assay type: in vivo
Text: as §1

[5] = test system: lysine succinylation PTMs in kidney; test: Quantitative mass spectrometry of contralateral and injured kidneys (AKI ± DC12); assay type: in vivo, mice
Text: FIGS. 4A-4C. Effects of injury and DC12 on protein succinylation PTMs. N=4 mice were subjected to AKI±7 days of 10% DC12. Contralateral (non-injured kidneys) served as control. Quantitative mass spectrometry was used to profile lysine succinylation PTMs at the protein and site-level. […] FIG. 4C) Succinylation of individual lysine-containing peptides from four key peroxisomal proteins, normalized to control diet non-injured levels.
Portions of contralateral control kidney and injured kidney were used for quantitative mass spectrometry, to measure both total protein abundance and site-level changes in lysine succinylation.

[6] = Treadmill run to exhaustion, blood lactate; assay type: in vivo, wildtype mice; conditions: DC12 diet for 7 days
Description: (§3) FIGS. 10A-10D. DC12 protects against lactic acidosis. Wildtype mice were maintained on DC12 diet for 7 days, then run on a treadmill to exhaustion. […] Then, mice fed DC12 were tested for protection against metformin overdose, which is clinically known to induce a lethal lactic acidosis. After a single 400 mg/kg dose of metformin, 9/11 mice on control diet died, while 0/12 mice on DC12 diet died (FIG. 10B).

[7] = Indirect calorimetry (CLAMS) in DC12-fed mice; assay type: in vivo
Text: FIGS. 9A-9D. DC12 increases whole-body energy expenditure and respiratory exchange ratio. Indirect calorimetry indicated increased whole-body respiration as measured in the CLAMS apparatus over 72 hrs, for both oxygen consumed (FIG. 9A) and carbon dioxide produced (FIG. 9B). […] The calculated energy expenditure in the DC12 group was higher (FIG. 9D).

metformin overdose = test: Metformin overdose (lactic acidosis); assay type: in vivo, mice
Description: as §3

[8] = Body weight, food intake, grip strength and body composition (EchoMRI) in DC12-fed mice; assay type: in vivo
Description: FIGS. 8A-8G. […] FIG. 8A, 8B) Mice were fed DC12 for 5 weeks. Body weight and food weights were measured 3 times per week. […] Forelimb peak force was measured with a grip strength meter and normalized to body weight.

[9] = test system: lysine succinylation in liver peroxisomes; test: Lysine succinylation in liver peroxisomes and homogenates of WT versus Sirt5KO mice fed DC12; assay type: in vivo
Text: FIGS. 2A-2C. […] FIG. 2A) Livers from N=3 mice fed DC12 for 7 days, separated by Histodenz gradient centrifugation to yield pure peroxisomes and blotted with anti-succinyllysine (SucLys). ND lanes=one control mouse of each genotype fed normal diet. Peroxisome fraction is positive for peroxisome marker PMP70 but negative for mitochondrial Tim23 except for WT sample #2 which had minor mitochondrial contamination. FIG. 2B) Densitometry from panel (FIG. 2A) showing total SucLys signal normalized to PMP70. FIG. 2C) Liver homogenates from normal diet (ND) and Sirt5KO mice (N=4) were subjected to quantitative site-level mass spectrometry for succinylated peptides. The Y-axis is Log 2 fold-change for each peptide relative to wild-type (WT) on ND. Each dot is an individual peptide.
An important question was whether Sirt5, a deacylase that can reverse succinylation and glutarylation, would offset and reverse the effects of feeding DCAs.

cisplatin kidney injury = test: Nephrotoxic (cisplatin) model of AKI; assay type: in vivo, male 129 WT mice
Description: FIGS. 5A-5B. DC12 treatment mitigates cisplatin kidney injury. Normal diet or DC12-fed (7 days pre-treatment+3 days post-treatment) male 129 WT mice were injected i.p. with 18 mg/kg cisplatin and sacrificed at day 3. (FIG. 5A) Reduction of serum bicarbonate by cisplatin-AKI was mitigated in DC12 treated mice. (FIG. 5B) Renal tubular injury by cisplatin is mitigated in DC12 treated mice. Magnified images for dotted boxed areas are shown. Tubular dilation, debris, or proteinaceous casts are indicated(*) n=6-7, mean±SEM, t-test, *p<0.05, Scale bars: 50 um
We also conducted a nephrotoxic model of AKI (cisplatin).
as §2

For `O=C(O)CCCCCCC(=O)O` [DC8, octanedioic acid], the “interstitial fibrosis (trichrome)” value [1] was “dramatically decreased”, the “lysine succinylation (Suc-Lys) PTMs in kidney” value ([2]; western blotting) was “dramatic increase; also recorded: stronger protein succinylation” and the “lysine succinylation (Suc-Lys) PTMs in liver” value ([2]; western blotting) was “not the liver”. The kidney function (ischemic AKI; after ischemic injury) was “dramatically improved”, the BUN (ischemic AKI) was “lower” and the “kidney damage by H & E staining (dilated tubules, proteinaceous casts)” value (ischemic AKI) was “reduced kidney damage; also recorded: marked reduction in kidney damage”. For the same molecule, the serum creatinine (ischemic AKI) was “lower” and the “expression of the injury marker NGAL in proximal tubules” value (ischemic AKI) was “markedly reduced”.

For `O=C(O)CCCCCCCCC(=O)O` [DC10, decanedioic acid], the “lysine succinylation (Suc-Lys) PTMs in kidney” value ([2]; western blotting) was “large increase; also recorded: stronger protein succinylation”, the “lysine succinylation (Suc-Lys) PTMs in liver” value ([2]; western blotting) was “moderate upregulation” and the “blood lactate after acute exercise stress test on a treadmill” value ([3]; single dose) was “significantly lowered”.

With `O=C(O)CCCCCCCCCC(=O)O` [DC11, undecanedioic acid] the “lysine glutarylation (Glu-Lys) in liver and kidney” value [4] was “massive increase; also recorded: high-level protein glutarylation”.

With `O=C(O)CCCCCCCCCCC(=O)O` [DC12, dodecanedioic acid] the protein acetylation (protein acetylation) was “no changes were observed”, the “lysine succinylation in kidney” value ([5]; 7 days of 10% DC12, quantitative mass spectrometry) was “massively increased; also recorded: massive effects” and the “succinylation level of kidney peroxisomal proteins” value ([5]; compared to baseline (contralateral)) was “greatly increased”. For the same molecule, the “protein expression in kidney” value ([5]; total protein abundance, quantitative mass spectrometry) was “very minimal if any effect”, the “blood lactate at exhaustion” value [6] was “significantly reduced” and the reversibility of succinylation ([2]; 7-day washout after 7 days on DC12) was “reversible”. For the same molecule, the “time at which succinylation becomes maximal” value ([2]; 10% DC12 for 0 to 7 days) was 7 days, the “time for succinylation to arise” value ([2]; 10% DC12 for 0 to 7 days) was at most 1 days and the “succinylation in muscle, heart, and brain” value ([2]; DC12 mixed into the diet, western blotting) was “no change”. The “lysine succinylation (Suc-Lys) PTMs in kidney” value ([2]; western blotting) was “massive increase; also recorded: moderate increase; also recorded: massive upregulation”, the “lysine succinylation (Suc-Lys) PTMs in liver” value ([2]; western blotting) was “massive increase; also recorded: large increase; also recorded: massive upregulation; also recorded: strongest protein succinylation” and the “whole-body respiration, carbon dioxide produced” value ([7]; CLAMS over 72 hrs) was “increased”. For the same molecule, the “whole-body respiration, oxygen consumed” value ([7]; CLAMS over 72 hrs) was “increased”, the “respiratory exchange ratio (RER)” value ([7]; dark period) was “shift toward a higher RER” and the calculated energy expenditure ([7]; mouse, in vivo) was “higher”. For the same molecule, the BUN (ischemic AKI) was “lower; also recorded: significantly reduced”, the “kidney damage by H & E staining (dilated tubules, proteinaceous casts)” value (ischemic AKI) was “reduced kidney damage; also recorded: reduced the number of dilated tubules and proteinaceous casts” and the serum creatinine (ischemic AKI) was “lower; also recorded: significantly reduced”. The “expression of the injury marker NGAL in proximal tubules” value (ischemic AKI) was “markedly reduced; also recorded: less induction”, the “blood glucose levels relative to control” value (metformin overdose; 2 hr post-metformin injection) was “twice as high as control” and the “lactate levels, lower than control” value (metformin overdose; 2 hr post-metformin injection) was 50%. The mice that died (metformin overdose; single 400 mg/kg dose of metformin) was 0/12, the fat mass ([8]; 5 weeks or 9 weeks, EchoMRI) was “reduces fat mass” and the lean mass ([8]; 5 weeks or 9 weeks, EchoMRI) was “not altering lean mass”. The “liver fat (triacylglycerol, TAG)” value ([8]; at sacrifice) was “also reduced”, the “mass of the intra-abdominal fat pad (epididymal)” value ([8]; at sacrifice) was “significantly reduced” and the body weight ([8]; fed DC12 for 5 weeks) was “reduced body weight”. For the same molecule, the food intake ([8]; fed DC12 for 5 weeks) was “without changing food intake”, the “muscle strength (forelimb peak force normalized to body weight)” value ([8]; grip strength meter) was “does not reduce muscle strength” and the “lysine succinylation in liver peroxisomes, WT versus Sirt5-/-” value ([9]; 10% DC12 for 7 days, anti-succinyllysine blot) was “equal lysine succinylation”. The “succinylated peptides, fold-change relative to WT on normal diet” value ([9]; liver, quantitative mass spectrometry) was “very high fold-changes in succinylation in both genotypes; also recorded: increases lysine succinylation dramatically”, the “reduction of serum bicarbonate by cisplatin-AKI” value (cisplatin kidney injury; 18 mg/kg cisplatin i.p., day 3) was “mitigated; also recorded: improved functionality” and the “renal tubular injury by cisplatin (histology)” value (cisplatin kidney injury; 18 mg/kg cisplatin i.p., day 3) was “mitigated; also recorded: less structural damage”. The “protection against injury in cisplatin model” value (cisplatin kidney injury; mouse, in vivo) was “protected against injury”, the fasting glucose ([3]; two weeks on 10% DC12 diet) was “improved” and the forelimb grip strength ([3]; two weeks on 10% DC12 diet) was “improved”. The spontaneous locomotion ([3]; two weeks on 10% DC12 diet) was “improved” and the time spent resting ([3]; two weeks on 10% DC12 diet) was “less”.
